# Reference: patent publication US20230167437A1, “COMPOSITIONS FOR TREATING CANCER WITH KRAS MUTATIONS AND USES THEREOF” (Aadigen, LLC, priority 2020, published 2023)
# Tests used:
# Format in all cases: cell-based, human
# SW403 and SW480 cells = assay: Cell proliferation over 5 days (CellTiter Glow); details: SW480 and SW403 cells vs HT29 cells harboring KRAS WT
# Protocol: (§1) Transfection protocol. The following protocols are reported for 24/48/96 well plate format transfection. Cells should be trypsinized and seeded a day prior transfection Cells were cultured in Dulbecco's Modified Eagle's Medium (DMEM), supplemented with 2 mM glutamine, 1% antibiotics (streptomycin 10,000 μg/mL, penicillin, 10,000 IU/mL) and 10% (w/v) foetal calf serum (FCS), at 37° C. in a humidified atmosphere containing 5% CO2. 96 well plates seeded with 50,000 cells, the day prior transfection, grown to 60-80% confluence and set up to be at around 70% confluence at the day of transfection. Before transfection, cells are washed twice with DMEM (without FBS and pen/strep) (100 μl/well). Cells were then overlaid with 25 μl of complex solution, mixed gently and incubated for 10 min at 37° C.+5% CO2. 50 μl of fresh DMEM (without FBS and Antibiotics) was added and cells were incubated for 2 h at 37° C.+5% CO2 (time of exposure can be adjusted based on sensitivity of the cells). 250 μL of DMEM (containing 10% FCS and 1% antibiotics) were then added without removing the overlay of ADGN peptide/mRNA complexes. Cells were returned to the incubator (37° C., 5% CO2) and analyzed 48 hours to 72 hours post transfection.
# (§2) Nine different gRNAs targeting KRAS 35G>T mutant G12V (gRNA35T1, gRNA35T2, gRNA35T3, gRNA35T4, gRNA35T5, gRNA35T6, gRNA35T7, gRNA35T8 and gRNA35T9 (see FIG. 18)) were evaluated on SW403 and SW480 cancer cells harboring G12V KRAS mutation. Cas9 mRNA (0.15 μg) and gRNA (0.2 μg) were associated with ADGN-peptides as reported in experimental procedure. SW403, SW480 and HT-29 cells were cultured in 48 well plate format and treated with free mRNACas9-gRNA, or ADGN-100/mRNACas9:gRNA complex. Indel frequencies at the endogenous target sequences was evaluated 72 hours after transfection by either T7E1 method and by deep sequencing. Cell proliferation was analyzed over a period of 5 days using CellTiter Glow kits on GlowMax (Promega).
# KRAS 35G>T mutant G12V = assay: Indel frequencies at the endogenous target sequences (T7E1 / deep sequencing) after ADGN/Cas9 mRNA/gRNA transfection; details: for indel editing and disruption of G12V mutant KRAS (FIG. 1A): SW403, SW480 vs wild type KRAS HT29 cells, T7E1; for indel frequencies: deep sequencing, 72 hours after transfection, Cas9 mRNA 0.15 μg, gRNA 0.2 μg, ADGN-100
# Protocol: (§3) Complex formation with mRNA:gRNA: ADGN peptide/mRNA/gRNA particles were prepared at a 20:1:1 molar ratio. ADGN/Cas9mRNA/sgRNA complexes were prepared at a 20/1/1 molar ratio with 0.5 μg mRNA: 1.5 μg sgRNA and 5% Glucose or DMEM (example for 96 well plates). […] Premixed Cas9 mRNA/gRNA were prepared in sterile water at room temperature in a glass vial (1-4 ml). ADGN-peptide solution was added dropwise (1 drop/sec) under magnetic agitation at 400 rpm to obtain a 1:2 ratio, and incubated for 30 min at room temperature or 37° C. Just before transfection, 150 μl Glucose or DMEM was added and the solution was mixed under magnetic agitation at 400 rpm for 1 minute. Then the solution was incubated for 5 min at 37° C. Then the complexes was ready for cell transfection or IV administration. Prior to IV administration, complexes were diluted in sucrose 5% solution.
# as §1, §2
# (§4) In order to confirm the specificity of sgRNAs targeting G12V, G12C or G12D KRAS mutation, gRNA35T3 targeting G12V, gRNA34T6 targeting G12C, and gRNA35A5 targeting G12D were evaluated on a large panel of cancer cells harboring different KRAS mutations including SW403, SW480, PANC1, PK-45H, PK-1, MIA-PACA, H23, H358, HT-29, HS-68 and LS513. Cas9 mRNA (0.2 μg) and gRNA (0.4 μg) were associated with ADGN peptide at molar ratio 20/1 (peptide/nucleic acid). Cells were cultured in 48 well plate format and treated with free mRNACas9-gRNA, or ADGN/mRNACas9:gRNA complex. Indel frequencies at the endogenous target sequences was evaluated 72 hours after transfection by either T7E1 method and cell proliferation was analyzed over a period of 5 days using CellTiter Glow kits on GlowMax (Promega).
# KRAS 34G>T mutant G12C = assay: as above; details: for indel frequencies: deep sequencing, 72 hours after transfection, Cas9 mRNA 0.1 μg, gRNA 0.2 μg; for indel editing and disruption of G12C mutant KRAS (FIG. 3A): Mia-PACA, H23, H358 vs HT29 and PANC1 cells
# Protocol: as §3, §1
# (§5) Eight different gRNAs targeting KRAS 34G>T mutant G12C (gRNA34T1, gRNA34T2, gRNA34T3, gRNA34T4, gRNA34T5, gRNA34T6, gRNA34T7 and gRNA34T8) were evaluated on MIA-PACA, H23, H358, H29 and PANC1 cells. Cas9 mRNA (0.1 μg) and gRNA (0.2 μg) were associated with ADGN peptide at molar ratio 20/1 (peptide/nucleic acid). MIA-PACA, H23, H358, PANC1 and HT29 cells were cultured in 48 well plate format and treated with free mRNACas9-gRNA, or ADGN/mRNACas9:gRNA complex. Indel frequencies at the endogenous target sequences was evaluated 72 hours after transfection by either T7E1 method or deep sequencing. Cell proliferation was analyzed over a period of 5 days using CellTiter Glow kits on GlowMax (Promega).
# as §4
# [1] = tested on: Mia-PACA, H23 and H358 cells; assay: Cell proliferation over 5 days (CellTiter Glow); details: Mia-PACA, H23, H358 vs KRAS WT HT29 or HS-68 and PANC1 cells
# Protocol: as §1, §5
# [2] = tested on: PANC1, PK1, LS513 and PK-45H cells; assay: Cell proliferation over 5 days (CellTiter Glow); details: PANC1, PK1, LS513, PK-45H vs HT29 or HS-68 cells harboring KRAS WT
# Protocol: as §1
# (§6) Nine different gRNAs targeting KRAS 35G>A mutant G12D (gRNA35A1, gRNA35A2, gRNA35A3, gRNA35A4, gRNA35A5, gRNA35A6; gRNA35A7, gRNA35A8, gRNA35A9) were evaluated on LS513, Panc1, PK-45H, and PK1 cancer cells harboring G12D KRAS mutation. Cas9 mRNA (0.1 μg) and gRNA (0.2 μg) were associated with ADGN-peptide at molar ratio 20/1 (peptide/nucleic acid). LS513, Panc1, PK-45H, PK1, HS-68 and HT-29 cells were cultured in 48 well plate format and treated with free mRNACas9-gRNA, or ADGN/mRNACas9:gRNA complex. Indel frequencies at the endogenous target sequences was evaluated 72 hours after transfection by either T7E1 method or deep sequencing. Cell proliferation was analyzed over a period of 5 days using CellTiter Glow kits on GlowMax (Promega).
# KRAS 35G>A mutant G12D = assay: Indel frequencies at the endogenous target sequences (T7E1 / deep sequencing) after ADGN/Cas9 mRNA/gRNA transfection; details: for indel frequencies: deep sequencing, 72 hours after transfection, Cas9 mRNA 0.1 μg, gRNA 0.2 μg
# Protocol: as §3, §1, §6, §4
# wild type KRAS = assay: as above; details: for indel frequencies: deep sequencing, 72 hours after transfection, Cas9 mRNA 0.1 μg, gRNA 0.2 μg
# Protocol: as §3, §1, §2, §6
# [3] = SW403 cells (heterozygous 35G>T)
Sequence,inhibition of proliferation or survival (FIG. 1B) (SW403 and SW480 cells),indel editing and disruption of G12V mutant KRAS (FIG. 1A) (KRAS 35G>T mutant G12V),indel frequencies (KRAS 35G>T mutant G12V; [3]) [%],indel frequencies (KRAS 35G>T mutant G12V; SW480 cells (homozygous 35G>T)) [%],indel frequencies (KRAS 34G>T mutant G12C; H23 cells) [%],indel frequencies (KRAS 34G>T mutant G12C; H358 cells) [%],indel frequencies (KRAS 34G>T mutant G12C; Mia-PACA cells) [%],indel editing and disruption of G12C mutant KRAS (FIG. 3A) (KRAS 34G>T mutant G12C),inhibition of proliferation or survival (FIG. 3B) [1],other results
"TGGTAGTTGGAGCTGTTGGCGT (guide TGGTAGTTGGAGCTGTTGGCGT; chemistry not given here) [gRNA35T1, sgRNA target KRAS G12V mutation (c.35G>T); PAM AGG]",specifically inhibit proliferation or survival of SW480 and SW403 cells,specifically induced indel editing and efficient disruption,35,57,–,–,–,–,–,–
"TTG TGG TAG TTG GAG CTT G (guide TTGTGGTAGTTGGAGCTTG; sgRNA, chemical modifications not given here, further chemistry not given here) [gRNA34T5, sgRNA target KRAS G12C mutation (34G>T); PAM TGG]",–,–,–,–,68,67,75,induced indel editing and efficient disruption of G12C mutant KRAS,"specifically inhibit proliferation or survival of Mia-PACA, H23 and H358 cells",–
"CTTGTGGTAGTTGGAGCTTG (guide CTTGTGGTAGTTGGAGCTTG; chemistry not given here) [gRNA34T1, sgRNA target KRAS G12C mutation (34G>T); PAM TGG]",–,–,–,–,41,29,34,induced indel editing and efficient disruption of G12C mutant KRAS,"specifically inhibit proliferation or survival of Mia-PACA, H23 and H358 cells",–
"GTT GGA GCT GTT GGC GT (guide GTTGGAGCTGTTGGCGT; chemistry not given here) [gRNA35T6, sgRNA target KRAS G12V mutation (c.35G>T); PAM AGG]",specifically inhibit proliferation or survival of SW480 and SW403 cells,specifically induced indel editing and efficient disruption,18,39,–,–,–,–,–,–
"GTAGTTGGAGCTGTTGGCGT (guide GTAGTTGGAGCTGTTGGCGT; chemistry not given here) [gRNA35T8, sgRNA target KRAS G12V mutation (c.35G>T); PAM AGG]",specifically inhibit proliferation or survival of SW480 and SW403 cells,specifically induced indel editing and efficient disruption,40,51,–,–,–,–,–,–
"GTT GGA GCT TGT GGC GT (guide GTTGGAGCTTGTGGCGT; chemistry not given here) [gRNA34T3, sgRNA target KRAS G12C mutation (34G>T); PAM AGG]",–,–,–,–,48,37,51,induced indel editing and efficient disruption of G12C mutant KRAS,"specifically inhibit proliferation or survival of Mia-PACA, H23 and H358 cells",–
"CTTGTGGTAGTTGGAGCTGA (guide CTTGTGGTAGTTGGAGCTGA; chemistry not given here) [gRNA35A1, sgRNA target KRAS G12D mutation (35G>A); PAM TGG]",–,–,–,–,–,–,–,–,–,"inhibition of proliferation or survival (FIG. 2B) [2]: specifically inhibit proliferation or survival of PANC1, PK1, LS513 and PK-45H cells; indel frequencies (KRAS 35G>A mutant G12D; LS513 cells): 17 ± 2%; indel frequencies (KRAS 35G>A mutant G12D; PANC1 cells): 32 ± 2%; indel frequencies (KRAS 35G>A mutant G12D; PK1 cells): 12 ± 1%; indel frequencies (KRAS 35G>A mutant G12D; PK-45H cells): 15 ± 0.8%; indel frequencies (wild type KRAS; HS68 cells (WT KRAS)): 8 ± 1%; effect on wild type KRAS cells (wild type KRAS; HT-29 and HS-68 cells): also affected wild type KRAS cells; indel frequencies (wild type KRAS; HT-29 cells (WT KRAS)): 10 ± 1%"
"GTT GGA GCT GAT GGC GT (guide GTTGGAGCTGATGGCGT; chemistry not given here) [gRNA35A6, sgRNA target KRAS G12D mutation (35G>A); PAM AGG]",–,–,–,–,–,–,–,–,–,"inhibition of proliferation or survival (FIG. 2B) [2]: specifically inhibit proliferation or survival of PANC1, PK1, LS513 and PK-45H cells; disruption of G12D mutant KRAS (FIG. 2A) (KRAS 35G>A mutant G12D; G12D cancer cells vs wild type KRAS cells (HT29 or HS-68)): induced efficient disruption of G12D mutant KRAS; indel frequencies (KRAS 35G>A mutant G12D; LS513 cells): 32 ± 5%; indel frequencies (KRAS 35G>A mutant G12D; PANC1 cells): 60 ± 2%; indel frequencies (KRAS 35G>A mutant G12D; PK1 cells): 37 ± 0.4%; indel frequencies (KRAS 35G>A mutant G12D; PK-45H cells): 48 ± 1%; indel frequencies (wild type KRAS; HS68 cells (WT KRAS)): 2 ± 1%; indel frequencies (wild type KRAS; HT-29 cells (WT KRAS)): 5 ± 1%"
